# Assay results from patent US20260008754A1, “N-SUBSTITUTED DERIVATIVES OF L-(L-PHENYL-3-ARYL)-LFF-PYRAZOL-4-YL)METHANAININE, METHOD FOR THEIR PRODUCTION AND THEIR APPLICATIONS” (priority 2022, published 2026).
# Legend:
# μ opioid receptor [1] = biological target: T1, μ opioid receptor (Homo sapiens, UniProt P35372); assay: μ opioid receptor agonism, G protein signaling pathway; type: cell-based; settings: for Biased Agonism Selectivity Coefficient k: G protein pathway relative to β arrestin (ratio of the two EC50)
# T1 sequence (P35372 whole entry, species assumed): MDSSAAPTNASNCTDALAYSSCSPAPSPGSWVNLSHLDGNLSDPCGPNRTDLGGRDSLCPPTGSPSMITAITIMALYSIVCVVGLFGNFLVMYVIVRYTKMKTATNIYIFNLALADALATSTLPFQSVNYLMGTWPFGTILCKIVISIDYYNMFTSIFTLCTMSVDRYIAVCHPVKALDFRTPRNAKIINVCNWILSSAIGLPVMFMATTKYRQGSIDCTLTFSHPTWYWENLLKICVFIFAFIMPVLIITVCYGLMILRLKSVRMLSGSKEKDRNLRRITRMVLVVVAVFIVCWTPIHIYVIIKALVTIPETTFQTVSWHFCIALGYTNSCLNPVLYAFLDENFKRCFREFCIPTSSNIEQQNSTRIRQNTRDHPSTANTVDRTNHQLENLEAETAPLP
# μ opioid receptor [2] = biological target: T1, μ opioid receptor; assay: μ opioid receptor agonism, β arrestin pathway; type: cell-based
# [3] = μ opioid receptor, G protein pathway, read-out: EC50 (G protein)
# [4] = μ opioid receptor, β arrestin pathway, read-out: EC50 (β arrestin)
SMILES,EC50 (μ opioid receptor [1]),Biased Agonism Selectivity Coefficient k (μ opioid receptor [1]),EC50 (μ opioid receptor [2]),EC50 (μ opioid receptor [1]; [3]),EC50 (μ opioid receptor [2]; [4])
CCOC(=O)c1cccc(CNCc2cn(-c3ccccc3)nc2-c2ccncc2)c1 [Compound 11],7220 nM,9.3,67500 nM,–,–
CC(C)Oc1ccc(CNCc2cn(-c3ccccc3)nc2-c2ccncc2)cc1 [Compound 14],521 nM,–,–,–,–
c1ccc(-n2cc(CNCc3ccc4c(c3)CCO4)c(-c3ccncc3)n2)cc1 [Compound 13],–,940.9,–,6.26 nM,5890 nM
CCOC(=O)c1cccc(CNCc2cn(-c3ccccc3)nc2-c2ccccc2)c1 [Compound 10],13900 nM,7.6,1830 nM,–,–
CCCOC(=O)c1cccc(CNCc2cn(-c3ccccc3)nc2-c2ccncc2)c1 [Compound 9],22200 nM,13.6,1630 nM,–,–
CCCNC(=O)c1cccc(CNCc2cn(-c3ccccc3)nc2-c2ccncc2)c1 [Compound 1],704 nM,26.7,18800 nM,–,–
Cc1cc(C)n2c(CNCc3cn(-c4ccccc4)nc3-c3ccccc3)cnc2n1 [Compound 6],2190 nM,–,–,–,–
c1ccc(-n2cc(CNCCn3cccn3)c(-c3ccncc3)n2)cc1 [Compound 15],3100 nM,–,–,–,–
CCCOC(=O)c1cccc(CNCc2cn(-c3ccccc3)nc2-c2ccccc2)c1 [Compound 8],6450 nM,11.3,569 nM,–,–
c1ccc(-n2cc(CNCc3ccc4c(c3)OCO4)c(-c3ccncc3)n2)cc1 [Compound 12],–,2228.6,–,10.5 nM,23400 nM
c1ccc(-c2nn(-c3ccccc3)cc2CNCc2ccc3occc3c2)cc1 [Compound 4],139 nM,32.8,4570 nM,–,–
CCCNC(=O)c1cccc(CNCc2cn(-c3ccccc3)nc2-c2ccccc2)c1 [Compound 2],146 nM,34.8,5060 nM,–,–
c1ccc(-n2cc(CNCc3ccc4occc4c3)c(-c3ccncc3)n2)cc1 [Compound 3],–,157.9,–,1.24 nM,195 nM
